Reference: patent publication US20230312646A1, “ANTIBACTERIAL PEPTIDES” (priority 2020, published 2023)
Numbered stars: 1 amine (or outer) side, 2 acyl side, 3 side chain; on linkers, the order of the positions; unused ones are H or OH. Square brackets hold non-standard residues; d marks the D form. Peptide text beside a SMILES is read from it. * marks the point of attachment. NEtAsp = CCN([C@@H](CC(=O)[*:3])C(=O)[*:2])[*:1]; Acryloyl(3-(3-pyridyl),E) = O=C(/C=C/c1cccnc1)*; Cinnamoyl(4-F) = O=C(/C=C/c1ccc(F)cc1)*; Caffeoyl = O=C(/C=C/c1ccc(O)c(O)c1)*; NMeCha = CN[C@@H](CC1CCCCC1)C(=O)O; Hydrocinnamoyl = O=C(CCc1ccccc1)*; NH(4-MeO-phenyl) = COc1ccc(N*)cc1; NMeR = CN[C@@H](CCCNC(=N)N)C(=O)O; X2 = O=C(CN(Cc1ccccn1)[*:1])[*:2]; X7 = C[N+](C)=C(NCC(=O)*)N1CCOCC1; NMeF = CN[C@@H](Cc1ccccc1)C(=O)O; X4 = O=C([O-])[C@H](Cc1ccccc1)N*; tBuAla = CC(C)(C)C[C@H](N)C(=O)O; NFurfurylGly = O=C(O)CNCc1ccco1; NMeQ = CN[C@@H](CCC(N)=O)C(=O)O; Cha = N[C@@H](CC1CCCCC1)C(=O)O; NMeD = CN[C@@H](CC(=O)O)C(=O)O; X1 = O=C(/C=C/c1ccc2ccccc2c1)*; X3 = CN(C)C(NCC(=O)*)=[N+](C)C; NMeL = CN[C@@H](CC(C)C)C(=O)O; Phe(ol) = N[C@H](CO)Cc1ccccc1; NHPhenethyl = c1ccc(CCN*)cc1; X8 = NC[C@H](Cc1ccccc1)N*; X6 = O=C(/C=C/c1ccccc1)*; CO = O=C([*:1])[*:2]

Target: T1, Escherichia coli SC (^EcSC) (Escherichia coli, UniProt P0A988)
T1 construct: His tag (inferred from the pET15b vector and Ni-NTA purification) (N); made in house; host or cells: E. coli
Test: biochemical
Type: binding
Conditions: for ΔG (kcal/mol) / Kd: ITC at 298.15 K (25° C.); for Kd: Kd (nM); for kon: read-out: kon (M^-1.s^-1)
Protocol: The procedure has been described previously (Wolff, P.; Oliéric, V.; Briand, J. P.; Chaloin, O.; Dejaegere, A.; Dumas, P.; Ennifar, E.; Guichard, G.; Wagner, J.; Burnouf, D. Y., Structure-Based Design of Short Peptide Ligands Binding onto the E. coli Processivity Ring. J. Med. Chem. 2011, 54 (13), 4627-4637). Briefly, E.coli cells were transformed with plasmids pET15b containing the dnaN gene from E. coli and were grown in LB at 37° C. to OD 0.5, then induced by IPTG (0.1 mM) at 28° C. overnight. dnaN proteins fractions were first enriched on a Ni-NTA column, eluted with a histidine step (300 mM) and further purified on a Source Q column in buffer containing 20 mM Tris HCI pH 7.5, 0.5 mM EDTA and 10% (v/v) glycerol, using a gradient from 0 to 0.5 M NaCl. After a final ultracentrifugation (45 K, 1 h, 20° C.), soluble proteins were concentrated on a Centricon 30 K (Millipore) in the same buffer and stored at 4° C. in 2 M ammonium sulfate. Buffer exchange was performed on Centrikon 10 K at 4° C. before use and protein quality was assessed by DLS.
ITC experiments were performed using an iTC200 or a PEAQ-ITC instrument (Microcal Malvern Panalytical). Peptides (300 or 600 µM) were titrated at 25° C. by sequential injections (usually 2 µl each) into an SC solution (30 or 60 µM). Data were corrected for heat of injection by subtracting the signal of the titration of peptides into proteiN-free buffer solution (Hepes 10 mM pH 7.4, NaCl 0.15 M, EDTA 3 mM). Each titration was performed at least twice. Analyses of experimental data were performed following a classical treatment with the AFFINImeter software (https://www.affinimeter.com; S4S, Santiago de Compostela, Spain). In addition, kinetic information was obtained in some cases with kinITC as implemented in the software AFFINImeter.
All newly synthesized peptides were tested for their interaction with ^EcSC by ITC at 25° C. As a general rule, all thermodynamic profiles reveal an exothermic interaction, and a non-favorable entropic component. The resulting negative Gibb’s free energies characterize a spontaneous interaction. The analysis of raw data by the Affinimeter® software also gave access to kinetics rate constant of the interaction.

T1 sequence (P0A988 whole entry): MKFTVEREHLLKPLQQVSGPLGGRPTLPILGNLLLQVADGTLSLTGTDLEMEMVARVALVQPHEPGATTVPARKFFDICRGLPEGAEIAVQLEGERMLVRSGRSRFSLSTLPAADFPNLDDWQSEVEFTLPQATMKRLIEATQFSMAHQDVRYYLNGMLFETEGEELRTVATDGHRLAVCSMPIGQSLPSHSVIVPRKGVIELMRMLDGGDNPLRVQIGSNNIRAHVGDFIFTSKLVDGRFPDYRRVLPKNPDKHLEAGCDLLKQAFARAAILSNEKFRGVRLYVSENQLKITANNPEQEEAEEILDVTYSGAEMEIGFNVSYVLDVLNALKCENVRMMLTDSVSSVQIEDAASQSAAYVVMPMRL

Structure (SMILES)	ΔG (kcal/mol)	Kd [nM]	kon [M⁻¹ s⁻¹]	koff, fold higher than for peptide 1 (P1) (compared to P1) [fold]	kon value, fold higher than for peptide 1 (P1) (compared to P1) [fold]
CC(=O)N[C@@H](CCC(N)=O)C(=O)N[C@@H](CC1CCCCC1)C(=O)N[C@H](C(=O)N[C@@H](CC(C)C)C(=O)N[C@@H](Cc1ccccc1)C(=O)O)[C@@H](C)O [Asp to Thr substitution] (Ac-Q[Cha]TLF-OH)	-9.2 (+/- 0.1) kcal/mol	180	–	–	–
CC(=O)N(C)[C@@H](CCC(N)=O)C(=O)N[C@@H](CC1CCCCC1)C(=O)N[C@@H](CC(=O)O)C(=O)N[C@@H](CC(C)C)C(=O)N[C@@H](Cc1ccccc1)C(=O)O [P2] (Ac-[NMeQ][Cha]DLF-OH)	-7.7 (± 0.2) kcal/mol	> 1000	21000	–	–
CC(=O)N[C@@H](CCC(N)=O)C(=O)N(C)[C@@H](CC1CCCCC1)C(=O)N[C@@H](CC(=O)O)C(=O)N[C@@H](CC(C)C)C(=O)N[C@@H](Cc1ccccc1)C(=O)O [P3] (Ac-Q[NMeCha]DLF-OH)	-6.0 (± 0.1) kcal/mol	> 1000	–	–	–
CC(=O)N[C@@H](CCC(N)=O)C(=O)N[C@@H](CC1CCCCC1)C(=O)N(C)[C@@H](CC(=O)O)C(=O)N[C@@H](CC(C)C)C(=O)N[C@@H](Cc1ccccc1)C(=O)O [P4] (Ac-Q[Cha][NMeD]LF-OH)	-9.5 (± 0.1) kcal/mol	114	210000	2.5	5
CCN(C(=O)[C@H](CC1CCCCC1)NC(=O)[C@H](CCC(N)=O)NC(C)=O)[C@@H](CC(=O)O)C(=O)N[C@@H](CC(C)C)C(=O)N[C@@H](Cc1ccccc1)C(=O)O [P5] (Ac-Q[Cha][NEtAsp]LF-OH)	-8.57 (± 0.07) kcal/mol	523	28800	–	–
CC(=O)N[C@@H](CCC(N)=O)C(=O)N[C@@H](CC1CCCCC1)C(=O)N[C@@H](CC(=O)O)C(=O)N(C)[C@@H](CC(C)C)C(=O)N[C@@H](Cc1ccccc1)C(=O)O [P6] (Ac-Q[Cha]D[NMeL]F-OH)	-5.2 (± 0.2) kcal/mol	> 1000	–	–	–
CC(=O)N[C@@H](CCC(N)=O)C(=O)N[C@@H](CC1CCCCC1)C(=O)N[C@@H](CC(=O)O)C(=O)N[C@@H](CC(C)C)C(=O)N(C)[C@@H](Cc1ccccc1)C(=O)O [P7] (Ac-Q[Cha]DL[NMeF]-OH)	-7.1 (± 0.1) kcal/mol	> 1000	10000	–	–
CC(C)C[C@H](NC(=O)[C@H](CC(=O)O)NC(=O)[C@H](CC1CCCCC1)NC(=O)[C@H](CCC(N)=O)NC(=O)CNCc1ccccn1)C(=O)N[C@@H](Cc1ccccc1)C(=O)O [P8] (H-[X2]Q[Cha]DLF-OH)	–	172	34000	–	–
CC(C)C[C@H](NC(=O)[C@H](CC(=O)O)NC(=O)[C@H](CC1CCCCC1)NC(=O)[C@H](CCC(N)=O)NC(=O)CNCc1ccco1)C(=O)N[C@@H](Cc1ccccc1)C(=O)O [P9] (H-[NFurfurylGly]Q[Cha]DLF-OH)	-9.2 (± 0.1) kcal/mol	171	48000	–	–
CC(=O)N[C@@H](CCCNC(=N)N)C(=O)N[C@@H](CCC(N)=O)C(=O)N[C@@H](CC1CCCCC1)C(=O)N[C@@H](CC(=O)O)C(=O)N[C@@H](CC(C)C)C(=O)N[C@@H](Cc1ccccc1)C(=O)O [P12] (Ac-RQ[Cha]DLF-OH)	-8.60 (± 0.08) kcal/mol	498	37000	2.5	–
CC(=O)N(C)[C@@H](CCCNC(=N)N)C(=O)N[C@@H](CCC(N)=O)C(=O)N[C@@H](CC1CCCCC1)C(=O)N[C@@H](CC(=O)O)C(=O)N[C@@H](CC(C)C)C(=O)N[C@@H](Cc1ccccc1)C(=O)O [P13] (Ac-[NMeR]Q[Cha]DLF-OH)	-7.7 (± 0.1) kcal/mol	2130	21000	4	–
CC(C)C[C@H](NC(=O)[C@H](CC(=O)O)NC(=O)[C@H](CC1CCCCC1)NC(=O)[C@H](CCC(N)=O)NC(=O)CNC(N1CCOCC1)=[N+](C)C)C(=O)N[C@@H](Cc1ccccc1)C(=O)[O-] [P14] (X7-Q[Cha]DL-X4)	-9.0 (± 0.1) kcal/mol	276	34000	–	–
CC(C)C[C@H](NC(=O)[C@H](CC(=O)O)NC(=O)[C@H](CC1CCCCC1)NC(=O)[C@H](CCC(N)=O)NC(=O)CNC(N(C)C)=[N+](C)C)C(=O)N[C@@H](Cc1ccccc1)C(=O)[O-] [P15] (X3-Q[Cha]DL-X4)	-8.7 (± 0.1) kcal/mol	353	34000	–	–
CC(C)C[C@H](NC(=O)[C@H](CC(=O)O)NC(=O)[C@H](CC1CCCCC1)NC(=O)[C@H](CCC(N)=O)NC(=O)/C=C/c1cccnc1)C(=O)N[C@@H](Cc1ccccc1)C(=O)O [P16] ({Acryloyl(3-(3-pyridyl),E)}-Q[Cha]DLF-OH)	-9.3 (± 0.2) kcal/mol	156	46000	–	–
CC(C)C[C@H](NC(=O)[C@H](CC(=O)O)NC(=O)[C@H](CC1CCCCC1)NC(=O)[C@H](CCC(N)=O)NC(=O)/C=C/c1ccccc1)C(=O)N[C@@H](Cc1ccccc1)C(=O)O [P17] (X6-Q[Cha]DLF-OH)	-9.4 (± 0.2) kcal/mol	129	46000	–	–
CC(C)C[C@H](NC(=O)[C@H](CC(=O)O)NC(=O)[C@H](CC1CCCCC1)NC(=O)[C@H](CCC(N)=O)NC(=O)/C=C/c1ccc(F)cc1)C(=O)N[C@@H](Cc1ccccc1)C(=O)O [P18] ({Cinnamoyl(4-F)}-Q[Cha]DLF-OH)	–	144	–	–	–
CC(C)C[C@H](NC(=O)[C@H](CC(=O)O)NC(=O)[C@H](CC1CCCCC1)NC(=O)[C@H](CCC(N)=O)NC(=O)CCc1ccccc1)C(=O)N[C@@H](Cc1ccccc1)C(=O)O [P19] (Hydrocinnamoyl-Q[Cha]DLF-OH)	–	123	55000	–	–
CC(C)C[C@H](NC(=O)[C@H](CC(=O)O)NC(=O)[C@H](CC1CCCCC1)NC(=O)[C@H](CCC(N)=O)NC(=O)/C=C/c1ccc2ccccc2c1)C(=O)N[C@@H](Cc1ccccc1)C(=O)O [P20] (X1-Q[Cha]DLF-OH)	–	89	65000	–	–
CC(C)C[C@H](NC(=O)[C@H](CC(=O)O)NC(=O)[C@H](CC1CCCCC1)NC(=O)[C@H](CCC(N)=O)NC(=O)/C=C/c1ccc(O)c(O)c1)C(=O)N[C@@H](Cc1ccccc1)C(=O)O [P21] (Caffeoyl-Q[Cha]DLF-OH)	–	99	46000	–	–
COc1ccc(NC(=O)N[C@@H](CCC(N)=O)C(=O)N[C@@H](CC2CCCCC2)C(=O)N[C@@H](CC(=O)O)C(=O)N[C@@H](CC(C)C)C(=O)N[C@@H](Cc2ccccc2)C(=O)O)cc1 [P22] ({NH(4-MeO-phenyl)-CO}-Q[Cha]DLF-OH)	–	73	40000	–	–
CC(=O)N[C@@H](CCC(N)=O)C(=O)N[C@@H](CC1CCCCC1)C(=O)N[C@@H](CC(=O)O)C(=O)N[C@@H](CC(C)C)C(=O)NCCc1ccccc1 [P23] (Ac-Q[Cha]DL-NHPhenethyl)	-8.2 (± 0.05) kcal/mol	922	19000	–	–
CC(=O)N[C@@H](CCC(N)=O)C(=O)N[C@@H](CC1CCCCC1)C(=O)N[C@@H](CC(=O)O)C(=O)N[C@@H](CC(C)C)C(=O)N[C@H](CO)Cc1ccccc1 [P24] (Ac-Q[Cha]DL[Phe(ol)])	-8.4 (± 0.1) kcal/mol	751	26000	–	–
CC(=O)N[C@@H](CCC(N)=O)C(=O)N[C@@H](CC1CCCCC1)C(=O)N[C@@H](CC(=O)O)C(=O)N[C@@H](CC(C)C)C(=O)N[C@H](CN)Cc1ccccc1 [P25] (Ac-Q[Cha]DL-X8)	-8.27 (± 0.03) kcal/mol	877	12000	–	–
CC(=O)N[C@@H](CCC(N)=O)C(=O)N[C@@H](CC1CCCCC1)C(=O)N[C@@H](CC(=O)O)C(=O)N[C@@H](CC(C)C)C(=O)N[C@@H](Cc1ccccc1)C(N)=O [P26] (Ac-Q[Cha]DLF-NH2)	-9.0 (± 0.1) kcal/mol	268	33000	–	–
CC(=O)N[C@@H](CCC(N)=O)C(=O)N[C@@H](CC1CCCCC1)C(=O)N[C@@H](CC(=O)O)C(=O)N[C@@H](CC(C)C)C(=O)NCC(=O)N[C@@H](CC(C)C)C(=O)O [P27] (Ac-Q[Cha]DLGL-OH)	-8.4 (± 0.1) kcal/mol	682	26000	–	–
CC(=O)N[C@@H](CCC(N)=O)C(=O)N[C@@H](CC1CCCCC1)C(=O)N[C@@H](CC(=O)O)C(=O)N[C@@H](CC(C)C)C(=O)NCC(=O)N[C@@H](CC(C)(C)C)C(=O)O [P28] (Ac-Q[Cha]DLG[tBuAla]-OH)	-7.60 (± 0.06) kcal/mol	2690	11000	–	–
